Here are results for two compounds from ChEMBL document CHEMBL6120994, “Unravelling the potential of natural chelating agents in the control of Staphylococcus aureus and Pseudomonas aeruginosa biofilms” (Eur J Med Chem, 2025).

For series [1], the system named is Staphylococcus aureus. In words: Antibiotic adjuvant activity against preestablished 24 hr-old Staphylococcus aureus CECT 976 assessed as potentiation of tobramycin-induced antibiofilm activity by measuring reduction of biomass at 10000 ug/ml measured after 24 hrs in presence of 1/4XMIC to MIC tobramycin by crystal violet staining method. The class given is functional, organism-based. To be noted: dose 10000.0 µg/ml.

The subject of series [2] is Pseudomonas aeruginosa. In words: Antibiofilm activity against Pseudomonas aeruginosa PAK01 biofilm assessed as reduction of bacterial biomass by crystal violet staining based analysis. It counts as functional.
Series [3] has as its system Staphylococcus aureus. In words: Antibiotic adjuvant activity against Staphylococcus aureus CECT 976 assessed as potentiation of tobramycin-induced antibiofilm activity by measuring reduction of CFU of biofilm cells at 500 ug/ml measured after 24 hrs in presence of 1/2X to 1/8XMIC tobramycin by visual counting method. The class given is functional. Particulars: dose 500 µg/ml.

Series [4] deals with Pseudomonas aeruginosa. Description: Antibiotic adjuvant activity against Pseudomonas aeruginosa ATCC 10145 assessed as fractional inhibitory concentration index (MBC) at 125 ug/ml measured after 24 hrs in presence of ciprofloxacin by checkerboard assay. It counts as functional. Particulars: dose 125 µg/ml.
For series [5], the system named is Pseudomonas aeruginosa. In words: Antibiofilm activity against Pseudomonas aeruginosa ATCC 10145 assessed as reduction in metabolic activity of biofilm cells at 1000 ug/ml by resazurin staining based fluorescence analysis. It counts as functional. A general note: Resazurin is reduced to fluorescent resorufin, in cell work by metabolically active cells.
Series [6] can be described thus: Cytotoxicity against human HepG2 cells assessed as cell mass at 375 to 500 ug/ml measured after 24 hrs by SRB binding assay. It counts as toxicity, cell-based. To be noted: at 375 to 500 µg/mL, dose 375-500 µg/ml, read-out: Activity.

Activity calls are given as the source filed them. The rule behind the calls is not given here.

For orientation: inhibition means the change of the read-out against control, counted positive when it falls.

Turning to `O=c1cc(CO)occ1O` [KOJIC ACID], the outcome in the series on Staphylococcus aureus [1] was inactive. Further, in the series with Pseudomonas aeruginosa [2], the “inhibition (INH)” value worked out at 5%. In the series with Staphylococcus aureus [3], the Activity is given as 2 log10CFU/cm^-2. In addition, in the series with Pseudomonas aeruginosa [4], the “fractional inhibitory concentration index (FICI)” value worked out at 1.
In the case of `Cc1occc(=O)c1O` [MALTOL], in the series on Pseudomonas aeruginosa [5], the inhibition at 1000 µg/mL was 30%. In series [6], the viability at 24 h was determined as 68%.
